This note sets out measurements from ChEMBL document CHEMBL1201862, “PubChem BioAssay data set” (2004).

Among the test systems are CCRF-CEM; SF-268; Malme-3M; 786-0; M14; SK-MEL-28; NCI-H23; RPMI-8226; HOP-62; SF-295; SF-539; UO-31; ACHN; PC-3; OVCAR-5; HT-29; SN12C; K562; IGROV-1.
Common to all, as to assay: growth of human tumour cells (NCI), 48 h

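Cells were grown in 96-well plates and exposed to each compound for 48 hours at five concentrations; endpoints were interpolated linearly between bracketing concentrations, or set to the highest concentration if not reached. GI50 = concentration required for 50% inhibition of growth.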 Activity calls are given as the source filed them. Rule as the data show it: active = GI50 up to about 1.1 µM and inactive = higher.

Consider `COc1cc2c(c3oc4c(O)cccc4c(=O)c13)CC(C(C)(O)CO)O2` (configuration not stated), for which the GI50 is 21.3 µM (inactive) with CCRF-CEM; 46.8 µM (inactive) in the assay with SF-268; 47.5 µM (inactive) in the assay with Malme-3M; 65.6 µM (inactive) in the assay with 786-0; > 100 µM (inactive) with M14; > 100 µM (inactive) with SK-MEL-28. Moreover, the GI50 with NCI-H23 was 95.7 µM (inactive); in the assay on RPMI-8226 it was > 100 µM (inactive); in the assay with HOP-62, > 100 µM (inactive); with SF-295, > 100 µM (inactive); in the assay on SF-539 it was 60.3 µM (inactive); in the assay on UO-31 it was > 100 µM (inactive). Moreover, the GI50 is 59.6 µM (inactive) in the assay on ACHN; > 100 µM (inactive) in the assay with PC-3; > 100 µM (inactive) with OVCAR-5; 43.8 µM (inactive) with HT-29; 60.1 µM (inactive) in the assay with SN12C; 55.6 µM (inactive) in the assay with K562. The GI50 in the assay with IGROV-1 was 41.7 µM (inactive).
As for `COc1ccc(CC2C3=C(CCN2C(=O)C2CCC2)CC2(CC3)OCCO2)cc1O` (configuration not stated), the GI50 in the assay on CCRF-CEM is 35.2 µM (inactive); with SF-268 it was 35.2 µM (inactive); in the assay with Malme-3M, 27.9 µM (inactive); in the assay with 786-0, 35.2 µM (inactive); in the assay on M14, 21 µM (inactive); in the assay on SK-MEL-28, 55.2 µM (inactive). The GI50 in the assay with NCI-H23 was 19.2 µM (inactive); with RPMI-8226, 36.6 µM (inactive); with HOP-62, 33.6 µM (inactive); with SF-295, 20.5 µM (inactive); in the assay with SF-539, 27.9 µM (inactive); in the assay on UO-31 it was 0.182 µM (active). Moreover, the GI50 is 84.1 µM (inactive) in the assay on ACHN; 31.3 µM (inactive) in the assay on PC-3; > 100 µM (inactive) in the assay on OVCAR-5; 29 µM (inactive) with HT-29; 29.6 µM (inactive) in the assay with SN12C; 22.6 µM (inactive) in the assay on K562. Moreover, the GI50 with IGROV-1 is 35.1 µM (inactive).
With `CCOC(=O)c1cc(C)n(CN(CCO)Cn2nc(C(=O)OCC)cc2C)n1`, the GI50 with CCRF-CEM was 18.8 µM (inactive); in the assay with SF-268, 34.9 µM (inactive); in the assay with Malme-3M, 27.1 µM (inactive); with 786-0 it was 22 µM (inactive); in the assay with M14, 18.5 µM (inactive); in the assay with SK-MEL-28, 40.7 µM (inactive). The GI50 is 21.1 µM (inactive) in the assay with NCI-H23; 19.9 µM (inactive) with RPMI-8226; 25.9 µM (inactive) with HOP-62; > 100 µM (inactive) in the assay on SF-295; 17.7 µM (inactive) with SF-539; 21.5 µM (inactive) with UO-31. In addition, the GI50 is 22.8 µM (inactive) in the assay with ACHN; 28.4 µM (inactive) in the assay on PC-3; 19.5 µM (inactive) with OVCAR-5; 23.6 µM (inactive) in the assay with HT-29; 27.4 µM (inactive) in the assay on SN12C; 26.9 µM (inactive) in the assay on K562. The GI50 in the assay with IGROV-1 was 29.4 µM (inactive).
For the compound `CNC(=O)N(C)C(=O)c1ccccc1C(=O)N(C)C(=O)NC`, the GI50 with CCRF-CEM, with SF-268, with Malme-3M, with 786-0, in the assay with M14 and in the assay on SK-MEL-28 was > 10 µM (inactive) each time. Also, the GI50 with NCI-H23, in the assay on RPMI-8226, in the assay with HOP-62, in the assay with SF-295, in the assay on SF-539 and in the assay with UO-31 was > 10 µM (inactive) each time. The GI50 in the assay on ACHN, in the assay on PC-3, with OVCAR-5, with HT-29, with SN12C and in the assay with K562 was > 10 µM (inactive) throughout. In addition, the GI50 with IGROV-1 was > 10 µM (inactive).
For `c1ccc(B2OCC(C3OB(c4ccccc4)OC4COB(c5ccccc5)OC43)O2)cc1` (configuration not stated), the GI50 with CCRF-CEM, in the assay with SF-268, in the assay with Malme-3M, in the assay on 786-0, in the assay with M14 and in the assay on SK-MEL-28 was > 100 µM (inactive) in each case. Besides, the GI50 in the assay with NCI-H23, in the assay on RPMI-8226, in the assay on HOP-62, in the assay on SF-295, in the assay with SF-539 and with UO-31 was > 100 µM (inactive) in each case. In addition, the GI50 with ACHN, with PC-3, in the assay on OVCAR-5, in the assay with HT-29, in the assay with SN12C and with K562 was > 100 µM (inactive) throughout. Also, in the assay on IGROV-1, the GI50 is > 100 µM (inactive).
As for `C/C(=N/NC(=S)Nc1ccc(Cl)cc1)c1cccc(/C(C)=N\NC(=S)Nc2ccc(Cl)cc2)n1`, the GI50 is 1.68 µM (inactive) in the assay with CCRF-CEM; 23.8 µM (inactive) in the assay with SF-268; 2.59 µM (inactive) with Malme-3M; 0.594 µM (active) in the assay on 786-0; 1.79 µM (inactive) with M14; 23.2 µM (inactive) in the assay with SK-MEL-28. For the same compound, the GI50 is 13.2 µM (inactive) with NCI-H23; 4.74 µM (inactive) in the assay with RPMI-8226; 2.76 µM (inactive) with HOP-62; 3.34 µM (inactive) in the assay on SF-295; 1.48 µM (inactive) in the assay on SF-539; 5.92 µM (inactive) with UO-31. The GI50 in the assay on ACHN was 2.54 µM (inactive); in the assay on PC-3, 3.47 µM (inactive); in the assay on OVCAR-5 it was 20 µM (inactive); in the assay with HT-29, 10.2 µM (inactive); with SN12C it was 10.7 µM (inactive); in the assay with K562, 5.02 µM (inactive). The GI50 in the assay on IGROV-1 is 1.74 µM (inactive).
With `COc1ccccc1CCN1CCN(CCCc2ccccc2)CC1`, the GI50 in the assay on CCRF-CEM was > 100 µM (inactive); in the assay on SF-268, > 100 µM (inactive); with Malme-3M it was > 100 µM (inactive); with 786-0, 45.6 µM (inactive); with M14, 24.2 µM (inactive); in the assay with SK-MEL-28, > 100 µM (inactive). The GI50 is 39.4 µM (inactive) in the assay on RPMI-8226; > 100 µM (inactive) with HOP-62; 52.5 µM (inactive) in the assay with SF-295; > 100 µM (inactive) in the assay on SF-539; 46.3 µM (inactive) with UO-31; > 100 µM (inactive) in the assay with ACHN. Further, the GI50 was > 100 µM (inactive) with PC-3; > 100 µM (inactive) in the assay with OVCAR-5; 28.8 µM (inactive) in the assay with HT-29; 83.9 µM (inactive) in the assay on SN12C; 34.5 µM (inactive) in the assay with K562; > 100 µM (inactive) with IGROV-1.
